In paper PMC2483479 (Acta Crystallographica Section D: Biological Crystallography, 2007):

Tests used:
[1] = biological target: T1, E. coli KAS I (Escherichia coli, UniProt P0A953); assay: X-ray crystal structure; type: binding; details: 0.3 mM thiolactomycin, 2.3 M ammonium sulfate, 0.1 M Tris-HCl pH 7.5, 3% DMSO; active site
T1 sequence (P0A953 1-406): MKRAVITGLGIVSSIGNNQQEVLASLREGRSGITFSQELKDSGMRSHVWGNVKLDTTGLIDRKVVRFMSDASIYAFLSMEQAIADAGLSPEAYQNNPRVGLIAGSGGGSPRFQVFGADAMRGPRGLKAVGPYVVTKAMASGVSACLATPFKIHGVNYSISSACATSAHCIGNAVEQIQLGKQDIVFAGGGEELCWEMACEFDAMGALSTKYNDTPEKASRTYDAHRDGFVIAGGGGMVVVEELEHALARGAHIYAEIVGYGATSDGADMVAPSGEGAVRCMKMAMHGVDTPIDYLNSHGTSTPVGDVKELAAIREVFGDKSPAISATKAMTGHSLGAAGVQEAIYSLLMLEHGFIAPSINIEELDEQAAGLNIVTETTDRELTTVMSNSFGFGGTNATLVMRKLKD

[2] = biological target: the molecule itself; assay: crystal structure

**Q.** For `C=C/C(C)=C/[C@@]1(C)SC(=O)C(C)=C1O` [thiolactomycin], which “X-ray crystal structure (crystal soaking)” value [1] is on record?
**A.** clearly confirmed binding of thiolactomycin at the active site

B1: Escherichia coli β-ketoacyl-ACP synthase I (KAS I) (enzyme)
chain: T1 sequence (P0A953 1-406)
**Q.** Does B1 bind [2]?
**A.** binds
